Laboratory results taken from PubChem BioAssay (NCI).
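Compound exposure: 48 hours, 5 concentrations, 96-well plates. GI50 marks 50% less growth. TGI marks complete inhibition of growth.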

What was measured:
Test in all cases: NCI tumour cell line growth inhibition, 48 h
SW-620 colon = system: SW-620 colon
LOX IMVI melanoma = system: LOX IMVI melanoma
HCC-2998 colon = system: HCC-2998 colon
RXF 393 renal = system: RXF 393 renal
HT29 colon = system: HT29 colon
UO-31 renal = system: UO-31 renal
A549 NSCLC = system: A549 NSCLC
KM20L2 colon = system: KM20L2 colon
HL-60(TB) leukemia = system: HL-60(TB) leukemia
LXFL 529 NSCLC = system: LXFL 529 NSCLC
CAKI-1 renal = system: CAKI-1 renal
KM12 colon = system: KM12 colon
DMS 114 small cell lung = system: DMS 114 small cell lung
DMS 273 small cell lung = system: DMS 273 small cell lung
NCI-H522 lung = system: NCI-H522 lung
SR leukemia = system: SR leukemia
COLO 205 colon = system: COLO 205 colon
OVCAR-8 ovarian = system: OVCAR-8 ovarian
IGROV1 ovarian = system: IGROV1 ovarian
SNB-78 CNS = system: SNB-78 CNS
SNB-19 CNS = system: SNB-19 CNS
NCI-H460 lung = system: NCI-H460 lung
UACC-62 melanoma = system: UACC-62 melanoma
786-0 renal = system: 786-0 renal
OVCAR-5 ovarian = system: OVCAR-5 ovarian
OVCAR-4 ovarian = system: OVCAR-4 ovarian
SF-539 CNS = system: SF-539 CNS
UACC-257 melanoma = system: UACC-257 melanoma
DLD-1 colon = system: DLD-1 colon
NCI-H226 lung = system: NCI-H226 lung
K-562 leukemia = system: K-562 leukemia
SF-268 CNS = system: SF-268 CNS
HOP-92 NSCLC = system: HOP-92 NSCLC
M14 melanoma = system: M14 melanoma
SNB-75 CNS = system: SNB-75 CNS
XF 498 CNS = system: XF 498 CNS
SN12C renal = system: SN12C renal
OVCAR-3 ovarian = system: OVCAR-3 ovarian
RPMI-8226 leukemia = system: RPMI-8226 leukemia
HCT-15 colon = system: HCT-15 colon
HCT-116 colon = system: HCT-116 colon
SK-OV-3 ovarian = system: SK-OV-3 ovarian
SK-MEL-28 melanoma = system: SK-MEL-28 melanoma
SK-MEL-5 melanoma = system: SK-MEL-5 melanoma
M19-MEL melanoma = system: M19-MEL melanoma
SF-295 CNS = system: SF-295 CNS
ACHN renal = system: ACHN renal
NCI-H23 lung = system: NCI-H23 lung
MALME-3M melanoma = system: MALME-3M melanoma
HOP-62 NSCLC = system: HOP-62 NSCLC
MOLT-4 leukemia = system: MOLT-4 leukemia
TK-10 renal = system: TK-10 renal
U251 CNS = system: U251 CNS
CCRF-CEM leukemia = system: CCRF-CEM leukemia
RXF-631 renal = system: RXF-631 renal
HOP-18 NSCLC = system: HOP-18 NSCLC
SK-MEL-2 melanoma = system: SK-MEL-2 melanoma
A498 renal = system: A498 renal
EKVX NSCLC = system: EKVX NSCLC

With `CC1(C)C(=O)C(C)(C)C1=NN` the TGI (SW-620 colon) was > 100 µM, the TGI (LOX IMVI melanoma) was > 100 µM and the TGI (HCC-2998 colon) was > 100 µM. For the same compound, the TGI (RXF 393 renal) was > 100 µM, the TGI (HT29 colon) was > 100 µM and the TGI (UO-31 renal) was > 100 µM. For the same compound, the TGI (A549 NSCLC) was > 100 µM, the TGI (KM20L2 colon) was > 100 µM and the TGI (HL-60(TB) leukemia) was > 100 µM. The TGI (LXFL 529 NSCLC) was > 100 µM, the TGI (CAKI-1 renal) was > 100 µM and the TGI (KM12 colon) was > 100 µM. The TGI (DMS 114 small cell lung) was > 100 µM, the TGI (DMS 273 small cell lung) was > 100 µM and the TGI (NCI-H522 lung) was > 100 µM. For the same compound, the TGI (SR leukemia) was > 100 µM, the TGI (COLO 205 colon) was > 100 µM and the TGI (OVCAR-8 ovarian) was > 100 µM. For the same compound, the TGI (IGROV1 ovarian) was > 100 µM, the TGI (SNB-78 CNS) was > 100 µM and the TGI (SNB-19 CNS) was > 100 µM. The TGI (NCI-H460 lung) was > 100 µM, the TGI (UACC-62 melanoma) was > 100 µM and the TGI (786-0 renal) was > 100 µM. The TGI (OVCAR-5 ovarian) was > 100 µM, the TGI (OVCAR-4 ovarian) was > 100 µM and the TGI (SF-539 CNS) was > 100 µM. For the same compound, the TGI (UACC-257 melanoma) was > 100 µM, the TGI (DLD-1 colon) was > 100 µM and the TGI (NCI-H226 lung) was > 100 µM. The TGI (K-562 leukemia) was > 100 µM, the TGI (SF-268 CNS) was > 100 µM and the TGI (HOP-92 NSCLC) was > 100 µM. The TGI (M14 melanoma) was > 100 µM, the TGI (SNB-75 CNS) was > 100 µM and the TGI (XF 498 CNS) was > 100 µM. The TGI (SN12C renal) was > 100 µM, the TGI (OVCAR-3 ovarian) was > 100 µM and the TGI (RPMI-8226 leukemia) was > 100 µM. The TGI (HCT-15 colon) was > 100 µM, the TGI (HCT-116 colon) was > 100 µM and the TGI (SK-OV-3 ovarian) was > 100 µM. For the same compound, the TGI (SK-MEL-28 melanoma) was > 100 µM, the TGI (SK-MEL-5 melanoma) was > 100 µM and the TGI (M19-MEL melanoma) was > 100 µM. For the same compound, the TGI (SF-295 CNS) was > 100 µM, the TGI (ACHN renal) was > 100 µM and the TGI (NCI-H23 lung) was > 100 µM. For the same compound, the TGI (MALME-3M melanoma) was > 100 µM, the TGI (HOP-62 NSCLC) was > 100 µM and the TGI (MOLT-4 leukemia) was > 100 µM. For the same compound, the TGI (TK-10 renal) was > 100 µM and the TGI (U251 CNS) was > 100 µM.

`CCO/C=C/C(C)C1(C(=O)OCC)CCCCC1=O` (stereo unspecified) was tested, and the TGI (LOX IMVI melanoma) was > 100 µM, the TGI (HCC-2998 colon) was > 100 µM and the TGI (CCRF-CEM leukemia) was > 100 µM. The TGI (RXF 393 renal) was > 100 µM, the TGI (RXF-631 renal) was > 100 µM and the TGI (HT29 colon) was > 100 µM. The TGI (UO-31 renal) was > 100 µM, the TGI (A549 NSCLC) was > 100 µM and the TGI (KM20L2 colon) was > 100 µM. For the same compound, the TGI (HL-60(TB) leukemia) was > 100 µM, the TGI (LXFL 529 NSCLC) was > 100 µM and the TGI (CAKI-1 renal) was > 100 µM. The TGI (KM12 colon) was > 100 µM, the TGI (DMS 114 small cell lung) was > 100 µM and the TGI (DMS 273 small cell lung) was 47 µM. For the same compound, the TGI (HOP-18 NSCLC) was > 100 µM, the TGI (NCI-H522 lung) was > 100 µM and the TGI (SR leukemia) was > 100 µM. The TGI (COLO 205 colon) was > 100 µM, the TGI (OVCAR-8 ovarian) was > 100 µM and the TGI (SK-MEL-2 melanoma) was > 100 µM. The TGI (IGROV1 ovarian) was > 100 µM, the TGI (SNB-78 CNS) was > 100 µM and the TGI (SNB-19 CNS) was > 100 µM. For the same compound, the TGI (NCI-H460 lung) was > 100 µM, the TGI (A498 renal) was > 100 µM and the TGI (UACC-62 melanoma) was > 100 µM. The TGI (786-0 renal) was > 100 µM, the TGI (OVCAR-5 ovarian) was > 100 µM and the TGI (OVCAR-4 ovarian) was > 100 µM. For the same compound, the TGI (SF-539 CNS) was > 100 µM, the TGI (UACC-257 melanoma) was > 100 µM and the TGI (DLD-1 colon) was > 100 µM. The TGI (NCI-H226 lung) was > 100 µM, the TGI (K-562 leukemia) was > 100 µM and the TGI (SF-268 CNS) was > 100 µM. For the same compound, the TGI (HOP-92 NSCLC) was > 100 µM, the TGI (M14 melanoma) was > 100 µM and the TGI (SNB-75 CNS) was > 100 µM. For the same compound, the TGI (XF 498 CNS) was > 100 µM, the TGI (SN12C renal) was > 100 µM and the TGI (OVCAR-3 ovarian) was > 100 µM. For the same compound, the TGI (RPMI-8226 leukemia) was > 100 µM, the TGI (HCT-15 colon) was > 100 µM and the TGI (HCT-116 colon) was > 100 µM. For the same compound, the TGI (SK-OV-3 ovarian) was > 100 µM, the TGI (SK-MEL-28 melanoma) was > 100 µM and the TGI (EKVX NSCLC) was > 100 µM. The TGI (SK-MEL-5 melanoma) was > 100 µM, the TGI (M19-MEL melanoma) was > 100 µM and the TGI (SF-295 CNS) was > 100 µM. For the same compound, the TGI (ACHN renal) was > 100 µM, the TGI (NCI-H23 lung) was > 100 µM and the TGI (MALME-3M melanoma) was > 100 µM. The TGI (HOP-62 NSCLC) was > 100 µM, the TGI (MOLT-4 leukemia) was > 100 µM and the TGI (TK-10 renal) was > 100 µM. For the same compound, the TGI (U251 CNS) was > 100 µM.

For `NC1CCCCC1.[O]=[Ge].[O]=[Ge].[O]=[Ge][OH].[O]=[Ge][OH]`, the TGI (SW-620 colon) was > 100 µM, the TGI (LOX IMVI melanoma) was > 100 µM and the TGI (HCC-2998 colon) was > 100 µM. For the same compound, the TGI (CCRF-CEM leukemia) was > 100 µM, the TGI (RXF 393 renal) was > 100 µM and the TGI (HT29 colon) was > 100 µM. The GI50 (UO-31 renal) was > 100 µM, the TGI (UO-31 renal) was > 100 µM and the TGI (A549 NSCLC) was > 100 µM. The TGI (KM20L2 colon) was > 100 µM, the TGI (HL-60(TB) leukemia) was > 100 µM and the GI50 (LXFL 529 NSCLC) was > 100 µM. The TGI (LXFL 529 NSCLC) was > 100 µM, the GI50 (CAKI-1 renal) was > 100 µM and the TGI (CAKI-1 renal) was > 100 µM. For the same compound, the TGI (KM12 colon) was > 100 µM, the TGI (DMS 114 small cell lung) was > 100 µM and the TGI (DMS 273 small cell lung) was > 100 µM. The TGI (HOP-18 NSCLC) was > 100 µM, the GI50 (SR leukemia) was > 100 µM and the TGI (SR leukemia) was > 100 µM. For the same compound, the TGI (OVCAR-8 ovarian) was > 100 µM, the TGI (SK-MEL-2 melanoma) was > 100 µM and the TGI (IGROV1 ovarian) was > 100 µM. The TGI (SNB-78 CNS) was > 100 µM, the TGI (SNB-19 CNS) was > 100 µM and the TGI (NCI-H460 lung) was > 100 µM. The TGI (A498 renal) was > 100 µM, the TGI (UACC-62 melanoma) was > 100 µM and the GI50 (786-0 renal) was > 100 µM. For the same compound, the TGI (786-0 renal) was > 100 µM, the TGI (OVCAR-5 ovarian) was > 100 µM and the TGI (OVCAR-4 ovarian) was > 100 µM. The TGI (SF-539 CNS) was > 100 µM, the TGI (UACC-257 melanoma) was > 100 µM and the TGI (DLD-1 colon) was > 100 µM. The GI50 (NCI-H226 lung) was > 100 µM, the TGI (NCI-H226 lung) was > 100 µM and the TGI (K-562 leukemia) was > 100 µM. For the same compound, the TGI (SF-268 CNS) was > 100 µM, the TGI (HOP-92 NSCLC) was > 100 µM and the GI50 (M14 melanoma) was > 100 µM. The TGI (M14 melanoma) was > 100 µM, the TGI (SNB-75 CNS) was > 100 µM and the GI50 (XF 498 CNS) was > 100 µM. For the same compound, the TGI (XF 498 CNS) was > 100 µM, the TGI (SN12C renal) was > 100 µM and the TGI (OVCAR-3 ovarian) was > 100 µM. For the same compound, the TGI (RPMI-8226 leukemia) was > 100 µM, the TGI (HCT-15 colon) was > 100 µM and the TGI (HCT-116 colon) was > 100 µM. The TGI (SK-MEL-28 melanoma) was > 100 µM, the TGI (EKVX NSCLC) was > 100 µM and the TGI (SK-MEL-5 melanoma) was > 100 µM. The TGI (M19-MEL melanoma) was > 100 µM, the GI50 (SF-295 CNS) was > 100 µM and the TGI (SF-295 CNS) was > 100 µM. For the same compound, the GI50 (ACHN renal) was > 100 µM, the TGI (ACHN renal) was > 100 µM and the TGI (NCI-H23 lung) was > 100 µM. For the same compound, the TGI (MALME-3M melanoma) was > 100 µM, the TGI (HOP-62 NSCLC) was > 100 µM and the TGI (MOLT-4 leukemia) was > 100 µM. For the same compound, the GI50 (TK-10 renal) was > 100 µM and the TGI (TK-10 renal) was > 100 µM.
